Measurements taken from the kinase profiling compilation of Christmann-Franck et al. (2016).

Columns and labels:
Test in all cases: radiometric filter-binding kinase assay
[1] = system: AKT1 (human), P31749 [S473D]
[2] = system: AKT2 (human), P31751 [S474D]
CSNK2A1 (human) = CSNK2A1 (human) (UniProt P68400)
DYRK3 (human) = DYRK3 (human) (UniProt O43781)
EPHA2 (human) = EPHA2 (human) (UniProt P29317)
EPHB1 (human) = EPHB1 (human) (UniProt P54762)
FGFR1 (human) = FGFR1 (human) (UniProt P11362)
GSK3B (human) = GSK3B (human) (UniProt P49841)
INSR (human) = INSR (human) (UniProt P06213)
INSRR (human) = INSRR (human) (UniProt P14616)
IRAK4 (human) = IRAK4 (human) (UniProt Q9NWZ3)
LCK (mouse) = conditions: accession and sequence are those of the human protein
MAP2K1 (human) = MAP2K1 (human) (UniProt Q02750)
MAP2K6 (human) = MAP2K6 (human) (UniProt P52564)
MAP3K9 (human) = MAP3K9 (human) (UniProt P80192)
MAPK10 (human) = MAPK10 (human) (UniProt P53779)
MAPK11 (human) = MAPK11 (human) (UniProt Q15759)
MAPK13 (human) = MAPK13 (human) (UniProt O15264)
MARK1 (human) = MARK1 (human) (UniProt Q9P0L2)
MARK2 (human) = MARK2 (human) (UniProt Q7KZI7)
MKNK1 (human) = MKNK1 (human) (UniProt Q9BUB5)
MYLK (human) = MYLK (human) (UniProt Q15746)
NEK2 (human) = NEK2 (human) (UniProt P51955)
NEK6 (human) = NEK6 (human) (UniProt Q9HC98)
[3] = system: PAK2 (human), Q13177 [T402E]
PHKG1 (human) = PHKG1 (human) (UniProt Q16816)
PIM2 (human) = PIM2 (human) (UniProt Q9P1W9)
PIM3 (human) = PIM3 (human) (UniProt Q86V86)
PKN2 (human) = PKN2 (human) (UniProt Q16513)
ROCK2 (rat) = conditions: accession and sequence are those of the human protein
[4] = system: RPS6KB1 (human), P23443 [T412E]
SRPK1 (human) = SRPK1 (human) (UniProt Q96SB4)
[5] = molecular target: STK11 CAB39 STRADA (human) (UniProt Q9Y376+Q7RTN6+Q15831)
SYK (human) = SYK (human) (UniProt P43405)
TBK1 (human) = TBK1 (human) (UniProt Q9UHD2)
TTK (human) = TTK (human) (UniProt P33981)

Chain of IRAK4 (human) (Q9NWZ3 whole entry, looked up): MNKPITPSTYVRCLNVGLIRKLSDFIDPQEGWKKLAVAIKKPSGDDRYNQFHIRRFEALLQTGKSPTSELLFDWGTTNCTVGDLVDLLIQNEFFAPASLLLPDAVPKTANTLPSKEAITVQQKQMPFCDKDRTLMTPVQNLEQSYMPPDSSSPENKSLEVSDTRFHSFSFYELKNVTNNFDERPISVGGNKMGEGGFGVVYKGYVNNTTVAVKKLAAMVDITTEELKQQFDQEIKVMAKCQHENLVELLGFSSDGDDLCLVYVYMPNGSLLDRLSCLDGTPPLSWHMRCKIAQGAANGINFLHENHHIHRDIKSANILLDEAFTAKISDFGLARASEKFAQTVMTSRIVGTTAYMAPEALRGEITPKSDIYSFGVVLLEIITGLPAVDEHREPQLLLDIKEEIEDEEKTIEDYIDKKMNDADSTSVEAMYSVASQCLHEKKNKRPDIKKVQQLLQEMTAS
Chain of MAPK10 (human) (P53779 whole entry, looked up): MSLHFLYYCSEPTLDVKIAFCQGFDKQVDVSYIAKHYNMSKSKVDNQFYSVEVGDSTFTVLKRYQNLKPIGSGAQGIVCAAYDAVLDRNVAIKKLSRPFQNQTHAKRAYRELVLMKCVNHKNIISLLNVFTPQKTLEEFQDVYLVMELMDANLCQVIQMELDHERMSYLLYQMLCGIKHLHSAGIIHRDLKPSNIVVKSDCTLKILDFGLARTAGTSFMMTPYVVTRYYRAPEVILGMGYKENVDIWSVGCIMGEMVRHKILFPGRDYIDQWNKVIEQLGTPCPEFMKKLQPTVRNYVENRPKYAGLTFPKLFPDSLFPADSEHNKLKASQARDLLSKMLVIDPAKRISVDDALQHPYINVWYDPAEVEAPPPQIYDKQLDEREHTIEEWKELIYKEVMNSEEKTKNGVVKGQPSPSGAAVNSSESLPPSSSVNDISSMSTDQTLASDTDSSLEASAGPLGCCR
Chain of PIM2 (human) (Q9P1W9 whole entry, looked up): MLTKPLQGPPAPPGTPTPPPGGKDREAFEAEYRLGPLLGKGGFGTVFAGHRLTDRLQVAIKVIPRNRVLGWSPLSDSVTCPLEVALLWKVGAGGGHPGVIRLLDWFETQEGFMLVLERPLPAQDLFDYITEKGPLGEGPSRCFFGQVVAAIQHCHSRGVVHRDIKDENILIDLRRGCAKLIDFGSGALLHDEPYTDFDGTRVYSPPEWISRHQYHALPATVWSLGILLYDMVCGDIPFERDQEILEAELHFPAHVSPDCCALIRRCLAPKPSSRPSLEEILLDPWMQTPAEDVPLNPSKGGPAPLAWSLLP
Chain of MARK1 (human) (Q9P0L2 whole entry, looked up): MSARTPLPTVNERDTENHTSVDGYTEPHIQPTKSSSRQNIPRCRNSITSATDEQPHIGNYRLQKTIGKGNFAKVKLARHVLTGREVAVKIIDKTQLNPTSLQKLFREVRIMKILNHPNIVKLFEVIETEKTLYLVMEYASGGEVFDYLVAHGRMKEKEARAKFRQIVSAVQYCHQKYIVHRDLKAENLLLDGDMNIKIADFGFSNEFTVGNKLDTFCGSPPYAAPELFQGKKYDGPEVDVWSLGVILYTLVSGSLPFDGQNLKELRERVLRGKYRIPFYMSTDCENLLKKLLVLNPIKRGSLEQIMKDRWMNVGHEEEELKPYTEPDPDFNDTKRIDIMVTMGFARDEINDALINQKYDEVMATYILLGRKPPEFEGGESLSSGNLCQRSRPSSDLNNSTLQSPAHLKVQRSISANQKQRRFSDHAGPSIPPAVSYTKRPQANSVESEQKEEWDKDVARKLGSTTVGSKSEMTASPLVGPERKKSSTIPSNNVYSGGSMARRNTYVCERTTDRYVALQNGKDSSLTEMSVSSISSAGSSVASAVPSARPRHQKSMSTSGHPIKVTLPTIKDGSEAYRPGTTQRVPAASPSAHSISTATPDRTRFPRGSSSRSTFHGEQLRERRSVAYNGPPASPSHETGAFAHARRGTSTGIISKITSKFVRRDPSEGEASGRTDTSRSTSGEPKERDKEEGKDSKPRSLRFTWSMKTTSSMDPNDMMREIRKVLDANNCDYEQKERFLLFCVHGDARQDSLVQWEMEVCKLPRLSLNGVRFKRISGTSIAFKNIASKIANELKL
Chain of GSK3B (human) (P49841 whole entry, looked up): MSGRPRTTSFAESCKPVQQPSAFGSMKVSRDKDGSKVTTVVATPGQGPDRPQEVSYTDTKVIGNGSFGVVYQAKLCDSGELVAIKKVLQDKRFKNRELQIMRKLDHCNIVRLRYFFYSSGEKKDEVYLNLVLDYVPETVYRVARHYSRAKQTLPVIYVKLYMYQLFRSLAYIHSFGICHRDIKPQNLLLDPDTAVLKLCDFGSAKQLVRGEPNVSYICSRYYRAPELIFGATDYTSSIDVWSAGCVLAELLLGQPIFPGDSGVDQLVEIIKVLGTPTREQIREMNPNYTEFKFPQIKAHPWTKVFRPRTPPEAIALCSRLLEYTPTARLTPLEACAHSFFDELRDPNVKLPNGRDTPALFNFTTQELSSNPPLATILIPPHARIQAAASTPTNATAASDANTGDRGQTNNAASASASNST
Chain of MAP2K6 (human) (P52564 whole entry, looked up): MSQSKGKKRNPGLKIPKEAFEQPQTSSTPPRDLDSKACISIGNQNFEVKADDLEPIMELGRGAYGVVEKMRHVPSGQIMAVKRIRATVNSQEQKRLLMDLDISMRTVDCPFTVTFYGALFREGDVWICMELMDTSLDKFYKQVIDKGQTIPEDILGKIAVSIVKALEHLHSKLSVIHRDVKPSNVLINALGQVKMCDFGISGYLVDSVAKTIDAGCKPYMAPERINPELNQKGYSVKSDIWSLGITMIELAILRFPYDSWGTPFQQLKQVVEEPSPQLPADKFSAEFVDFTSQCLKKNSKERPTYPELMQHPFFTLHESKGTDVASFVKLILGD
Chain of FGFR1 (human) (P11362 whole entry, looked up): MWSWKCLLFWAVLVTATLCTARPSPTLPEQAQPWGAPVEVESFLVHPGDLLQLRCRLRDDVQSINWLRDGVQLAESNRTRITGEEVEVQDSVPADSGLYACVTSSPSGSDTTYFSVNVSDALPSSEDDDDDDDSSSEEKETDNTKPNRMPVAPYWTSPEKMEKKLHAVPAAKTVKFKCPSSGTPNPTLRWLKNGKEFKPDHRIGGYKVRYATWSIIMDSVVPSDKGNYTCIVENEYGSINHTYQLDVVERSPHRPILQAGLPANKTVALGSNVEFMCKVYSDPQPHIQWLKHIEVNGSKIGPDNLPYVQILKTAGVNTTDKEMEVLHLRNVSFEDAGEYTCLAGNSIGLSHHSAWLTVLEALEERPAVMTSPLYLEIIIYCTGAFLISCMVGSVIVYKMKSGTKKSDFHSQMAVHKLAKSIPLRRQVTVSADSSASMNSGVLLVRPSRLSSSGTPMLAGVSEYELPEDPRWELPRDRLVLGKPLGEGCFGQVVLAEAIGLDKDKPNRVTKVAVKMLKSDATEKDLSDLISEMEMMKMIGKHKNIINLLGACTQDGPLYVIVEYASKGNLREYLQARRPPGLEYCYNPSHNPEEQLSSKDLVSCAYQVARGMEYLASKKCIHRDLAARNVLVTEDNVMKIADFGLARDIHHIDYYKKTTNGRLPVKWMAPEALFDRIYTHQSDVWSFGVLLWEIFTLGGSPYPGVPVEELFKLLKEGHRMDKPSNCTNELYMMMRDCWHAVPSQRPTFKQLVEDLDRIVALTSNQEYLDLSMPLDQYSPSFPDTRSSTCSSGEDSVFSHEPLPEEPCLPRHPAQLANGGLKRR
Chain of PAK2 (human), Q13177 [T402E] (Q13177 whole entry T402E, looked up): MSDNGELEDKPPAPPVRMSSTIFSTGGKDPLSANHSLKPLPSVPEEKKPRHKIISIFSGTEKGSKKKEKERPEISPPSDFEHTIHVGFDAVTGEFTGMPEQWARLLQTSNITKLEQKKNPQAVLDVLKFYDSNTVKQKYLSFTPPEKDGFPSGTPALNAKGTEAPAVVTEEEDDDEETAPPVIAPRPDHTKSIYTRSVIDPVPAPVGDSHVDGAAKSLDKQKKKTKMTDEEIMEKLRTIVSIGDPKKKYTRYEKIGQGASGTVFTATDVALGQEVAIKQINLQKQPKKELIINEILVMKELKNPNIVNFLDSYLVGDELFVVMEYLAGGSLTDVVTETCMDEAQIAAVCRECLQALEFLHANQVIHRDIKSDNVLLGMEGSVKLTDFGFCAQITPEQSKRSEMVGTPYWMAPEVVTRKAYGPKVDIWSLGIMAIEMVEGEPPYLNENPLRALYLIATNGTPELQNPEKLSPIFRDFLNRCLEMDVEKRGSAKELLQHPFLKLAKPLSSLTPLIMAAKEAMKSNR
Chain of MAP2K1 (human) (Q02750 whole entry, looked up): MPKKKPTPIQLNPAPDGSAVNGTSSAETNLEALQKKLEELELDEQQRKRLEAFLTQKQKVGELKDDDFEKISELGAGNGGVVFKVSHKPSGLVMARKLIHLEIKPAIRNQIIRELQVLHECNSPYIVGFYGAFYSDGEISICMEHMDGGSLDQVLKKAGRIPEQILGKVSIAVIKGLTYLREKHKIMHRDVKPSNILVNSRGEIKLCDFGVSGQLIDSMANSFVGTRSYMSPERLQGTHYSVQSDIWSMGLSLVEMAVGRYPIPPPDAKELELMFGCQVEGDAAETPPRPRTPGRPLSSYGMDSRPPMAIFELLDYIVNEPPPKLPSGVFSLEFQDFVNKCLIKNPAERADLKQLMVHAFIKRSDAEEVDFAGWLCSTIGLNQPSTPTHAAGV
Chain of CSNK2A1 (human) (P68400 whole entry, looked up): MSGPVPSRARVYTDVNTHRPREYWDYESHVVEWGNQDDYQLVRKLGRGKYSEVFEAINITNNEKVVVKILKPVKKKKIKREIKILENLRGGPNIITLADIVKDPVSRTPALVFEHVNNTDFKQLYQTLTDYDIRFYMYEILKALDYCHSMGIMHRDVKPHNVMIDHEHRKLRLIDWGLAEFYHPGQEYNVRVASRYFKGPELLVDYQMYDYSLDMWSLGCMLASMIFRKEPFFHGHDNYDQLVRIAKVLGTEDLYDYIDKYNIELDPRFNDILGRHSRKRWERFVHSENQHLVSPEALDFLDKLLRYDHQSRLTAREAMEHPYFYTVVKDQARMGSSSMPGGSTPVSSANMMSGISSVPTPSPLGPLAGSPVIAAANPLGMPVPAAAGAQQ

C=CC(=O)N1CCC[C@@H](n2nc(-c3ccc(Oc4ccccc4)cc3)c3c(N)ncnc32)C1
residual activity ([1]; compound 0.1 µM): 79% | residual activity ([1]; compound 1.0 µM): 97% | residual activity ([1]; compound 10.0 µM): 78% | residual activity ([2]; compound 0.1 µM): 80% | residual activity ([2]; compound 1.0 µM): 93% | residual activity ([2]; compound 10.0 µM): 71% | residual activity (CSNK2A1 (human); compound 0.1 µM): 104% | residual activity (CSNK2A1 (human); compound 1.0 µM): 115% | residual activity (CSNK2A1 (human); compound 10.0 µM): 111% | residual activity (DYRK3 (human); compound 0.1 µM): 93% | residual activity (DYRK3 (human); compound 1.0 µM): 86% | residual activity (DYRK3 (human); compound 10.0 µM): 68% | residual activity (EPHA2 (human); compound 0.1 µM): 91% | residual activity (EPHA2 (human); compound 1.0 µM): 98% | residual activity (EPHA2 (human); compound 10.0 µM): 64% | residual activity (EPHB1 (human); compound 0.1 µM): 72% | residual activity (EPHB1 (human); compound 1.0 µM): 90% | residual activity (EPHB1 (human); compound 10.0 µM): 86% | residual activity (FGFR1 (human); compound 0.1 µM): 52% | residual activity (FGFR1 (human); compound 1.0 µM): 24% | residual activity (FGFR1 (human); compound 10.0 µM): 15% | residual activity (GSK3B (human); compound 0.1 µM): 104% | residual activity (GSK3B (human); compound 1.0 µM): 95% | residual activity (GSK3B (human); compound 10.0 µM): 75% | residual activity (INSR (human); compound 0.1 µM): 77% | residual activity (INSR (human); compound 10.0 µM): 31% | residual activity (INSRR (human); compound 0.1 µM): 94% | residual activity (INSRR (human); compound 1.0 µM): 101% | residual activity (INSRR (human); compound 10.0 µM): 29% | residual activity (IRAK4 (human); compound 0.1 µM): 103% | residual activity (IRAK4 (human); compound 1.0 µM): 102% | residual activity (IRAK4 (human); compound 10.0 µM): 86% | residual activity (LCK (mouse); compound 0.1 µM): 22% | residual activity (LCK (mouse); compound 10.0 µM): 9% | residual activity (MAP2K1 (human); compound 0.1 µM): 85% | residual activity (MAP2K1 (human); compound 1.0 µM): 76% | residual activity (MAP2K1 (human); compound 10.0 µM): 56% | residual activity (MAP2K6 (human); compound 0.1 µM): 82% | residual activity (MAP2K6 (human); compound 1.0 µM): 97% | residual activity (MAP2K6 (human); compound 10.0 µM): 61% | residual activity (MAP3K9 (human); compound 0.1 µM): 104% | residual activity (MAP3K9 (human); compound 1.0 µM): 89% | residual activity (MAP3K9 (human); compound 10.0 µM): 27% | residual activity (MAPK10 (human); compound 0.1 µM): 84% | residual activity (MAPK10 (human); compound 1.0 µM): 96% | residual activity (MAPK10 (human); compound 10.0 µM): 86% | residual activity (MAPK11 (human); compound 1.0 µM): 103% | residual activity (MAPK11 (human); compound 10.0 µM): 68% | residual activity (MAPK13 (human); compound 0.1 µM): 88% | residual activity (MAPK13 (human); compound 1.0 µM): 104% | residual activity (MAPK13 (human); compound 10.0 µM): 80% | residual activity (MARK1 (human); compound 0.1 µM): 101% | residual activity (MARK1 (human); compound 1.0 µM): 103% | residual activity (MARK1 (human); compound 10.0 µM): 88% | residual activity (MARK2 (human); compound 0.1 µM): 88% | residual activity (MARK2 (human); compound 1.0 µM): 102% | residual activity (MARK2 (human); compound 10.0 µM): 82% | residual activity (MKNK1 (human); compound 0.1 µM): 91% | residual activity (MKNK1 (human); compound 1.0 µM): 115% | residual activity (MKNK1 (human); compound 10.0 µM): 84% | residual activity (MYLK (human); compound 0.1 µM): 79% | residual activity (MYLK (human); compound 1.0 µM): 90% | residual activity (MYLK (human); compound 10.0 µM): 44% | residual activity (NEK2 (human); compound 0.1 µM): 93% | residual activity (NEK2 (human); compound 1.0 µM): 107% | residual activity (NEK2 (human); compound 10.0 µM): 35% | residual activity (NEK6 (human); compound 0.1 µM): 76% | residual activity (NEK6 (human); compound 1.0 µM): 99% | residual activity (NEK6 (human); compound 10.0 µM): 93% | residual activity ([3]; compound 0.1 µM): 87% | residual activity ([3]; compound 1.0 µM): 72% | residual activity ([3]; compound 10.0 µM): 55% | residual activity (PHKG1 (human); compound 1.0 µM): 104% | residual activity (PHKG1 (human); compound 10.0 µM): 92% | residual activity (PIM2 (human); compound 0.1 µM): 99% | residual activity (PIM2 (human); compound 1.0 µM): 100% | residual activity (PIM2 (human); compound 10.0 µM): 97% | residual activity (PIM3 (human); compound 0.1 µM): 94% | residual activity (PIM3 (human); compound 1.0 µM): 96% | residual activity (PIM3 (human); compound 10.0 µM): 88% | residual activity (PKN2 (human); compound 0.1 µM): 109% | residual activity (PKN2 (human); compound 1.0 µM): 100% | residual activity (PKN2 (human); compound 10.0 µM): 90% | residual activity (ROCK2 (rat); compound 0.1 µM): 93% | residual activity (ROCK2 (rat); compound 1.0 µM): 111% | residual activity (ROCK2 (rat); compound 10.0 µM): 69% | residual activity ([4]; compound 0.1 µM): 93% | residual activity ([4]; compound 1.0 µM): 86% | residual activity ([4]; compound 10.0 µM): 66% | residual activity (SRPK1 (human); compound 0.1 µM): 100% | residual activity (SRPK1 (human); compound 1.0 µM): 115% | residual activity (SRPK1 (human); compound 10.0 µM): 99% | residual activity ([5]; compound 0.1 µM): 106% | residual activity ([5]; compound 10.0 µM): 100% | residual activity (SYK (human); compound 0.1 µM): 90% | residual activity (SYK (human); compound 1.0 µM): 100% | residual activity (SYK (human); compound 10.0 µM): 52% | residual activity (TBK1 (human); compound 0.1 µM): 102% | residual activity (TBK1 (human); compound 1.0 µM): 113% | residual activity (TBK1 (human); compound 10.0 µM): 90% | residual activity (TTK (human); compound 0.1 µM): 95% | residual activity (TTK (human); compound 1.0 µM): 101% | residual activity (TTK (human); compound 10.0 µM): 82%
